Results from US7056656B1, “Tat-derived oligourea and its method of production and use in high affinity and specific binding HIV-1 TAR RNA” (priority 1999, dated 2006).

Assays:
[1] = test system: HIV-1 TAR RNA (wild-type); test: Direct and competition electrophoretic mobility assays, oligourea/peptide-TAR RNA complexes; assay type: binding; conditions: for Kd: multiple sets of experiments, read-out: KD (equilibrium dissociation constant) for TAR RNA
From the text: (§1) FIG. 2A: Secondary structure of wild-type TAR RNA used in this study. Wild-type TAR RNA spans the minimal sequences that are required for Tat responsiveness in vivo ^14 and for in vitro binding of Tat-derived peptides.^9 Wild-type TAR contains two non-wild-type base pairs to increase transcription by T7 RNA polymerase. Mutant M0 TAR contained no bulge residue in its sequence. In mutant G26C, a base-pair in the upper stem of TAR RNA, G26-C39 was substituted by C26-G39. FIG. 2B: Electrophoretic mobility shift analysis for the Tat-derived oligourea binding to wild-type and trinucleotide bulge mutant (M0) TAR RNA. 5′-end labeled TAR RNAs (40 nM) were heated to 85° C. for three minutes mm and then cooled to room temperature in TK buffer (50 mM Tris-HCl pH 7.4), 20 mM KCl, 0.1% Triton X-100). The oligourea (150 nM) was added to wild-type or mutant TAR and incubated at room temperature for one hour. After adding 30% glycerol, the oligourea-RNA complexes were resolved on a non-denaturing 12% acrylamide gel and visualized by autoradiography or phosphorimaging. FIG. 2C: Specificity of the oligourea-TAR complex formation determined by competition experiments. Oligourea-RNA complexes were formed in the presence of increasing concentrations of unlabeled wild-type or mutant TAR RNAs. Concentrations of the competitor RNAs in lanes 3, 4, 5, 6 were 50, 100, 150, and 200 nM, respectively. Lanes 1 and 2 were marker lanes showing RNA and oligoureaRNA complexes. Oligourea-RNA complexes are labeled as R—P.
To compare the RNA-binding affinities of the oligourea to natural peptide, we synthesized a tat-derived peptide (Tyr47 to Arg57) containing the RNA-binding domain of Tat protein (FIG. 1). Dissociation constants of the Tat peptide-RNA complexes were determined from multiple sets of experiments under the same conditions used for oligourea-TAR RNA complexes. […] A relative dissociation constant (KREL) can be determined by measuring the ratios of wild-type Tat peptide to the oligourea dissociation constants (KD) for TAR RNA.

[2] = test system: mutant TAR RNA without the bulge residues (M0); test: Electrophoretic mobility shift analysis with trinucleotide bulge mutant (M0) TAR RNA; assay type: binding, HIV-1; conditions: M0 TAR RNA 40 nM, oligourea 150 nM
From the text: as §1, with “Lanes 1 and 2 were marker lanes showing RNA and oligoureaRNA complexes. Oligourea-RNA complexes are labeled as R—P.” left out

[3] = test system: HIV-1 TAR RNA (wild-type); test: Specificity of oligourea-TAR complex formation by competition with unlabeled TAR RNAs; assay type: binding
From the text: as §1
Specificity of the oligourea-TAR RNA complex formation was addressed by competition experiments (FIG. 2c).
Two base-pairs immediately above the pyrimidine bulge are critical for Tat recognition.^9 To determine whether the oligourea recognizes specific base-pairs in the stem region of TAR RNA or only a trinucleotide bulge containing RNA, we synthesized a TAR mutant where the G26-C39 base pair was substituted by a C26-G39 base-pair (FIG. 2a).

[4] = molecular target: T1, proteinase K (Parengyodontium album, UniProt P06873); test: Proteinase K digestion of RNA crosslink products (protease stability); assay type: in vitro ADME; conditions: 55° C., fifteen minutes after UV irradiation
Protocol: FIG. 3. Site-specific photocrosslinking reaction of TAR RNA labeled with 4-thioUracil at position 23 with the oligourea. For photochemical reactions, RNA duplex was prepared by hybridizing two strands.^5,7 Strand 1 of the duplex was 5′-end labeled with 32p Preformed RNA duplexes (40 nM) in the absence or presence of the oligourea (100 nM) were irradiated ([…]) and analyzed by denaturing gels as described earlier.^5,7 Proteinase K digestion was performed at 55° C. for fifteen minutes after LW irradiation. R—R and R—P XL indicate the RNA—RNA and RNA-oligourea crosslink, respectively.
To probe the oligourea-RNA interactions and determine the proteolysis stability of oligourea, we synthesized TAR RNA containing 4-thioU at position 23 and performed photocrosslinking experiments as described earlier (FIG. 3).^5,7 Irradiation of the oligourea-RNA complex yields a new band with electrophoretic mobility less than that of the RNA (lane 4). Both the oligourea and UV (360 nm) irradiation are required for the formation of this crosslinked RNA-oligourea complex (see lanes 3 and 4). Since the crosslinked oligourea-RNA complex is stable to alkaline pH (9.5), high temperature (85° C.) and denaturing conditions (8M urea, 2% SDS), we conclude that a covalent bond is formed between TAR RNA and the oligourea during the crosslinking reaction.

[5] = test system: Tat transactivation (HIV-1 LTR); test: Inhibition of Tat transactivation, CAT activity from integrated HIV-1 LTR of HL3TI cells; assay type: cell-based; conditions: luciferase as control
Protocol: FIG. 4. […] CAT activity expressed from the integrated HIV-1 LTR of HL3TI Cells with increasing amounts of oligourea is shown. Luciferase activity was a control experiment to monitor the transfection inhibition of pSV2Tat by the addition of oligourea. CAT and Luciferase activities were measured from multiple experiments and normalized to 100%.

[6] = molecular target: T1, proteinase K; conditions: similar proteinase K treatment; cited from earlier work
[7] = test system: Tat peptide (47-57), arginine-rich RNA-binding domain (HIV-1); test: EMSA; conditions: printed 0.78+0.05; same conditions as the oligourea
[8] = molecular target: Tat-derived oligourea (unnatural urea backbone carrying Tat 48-57 side chains) (HIV-1) (UniProt P04608); test: EMSA

T1 sequence (P06873 106-384): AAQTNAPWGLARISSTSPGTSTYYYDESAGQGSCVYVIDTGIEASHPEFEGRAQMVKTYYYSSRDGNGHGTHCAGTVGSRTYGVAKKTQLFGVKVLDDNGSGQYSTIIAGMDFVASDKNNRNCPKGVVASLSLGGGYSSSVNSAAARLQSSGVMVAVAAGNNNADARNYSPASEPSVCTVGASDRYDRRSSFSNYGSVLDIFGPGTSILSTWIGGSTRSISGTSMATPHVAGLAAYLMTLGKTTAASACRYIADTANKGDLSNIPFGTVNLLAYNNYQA

For GRKKRRQRRR [oligourea], which “relative dissociation constant KREL (ratio of wild-type Tat peptide KD to oligourea KD for TAR RNA)” value ([1]; wild-type TAR RNA) is on record?
Its value is 7.09.

And the “binding to TAR RNA (mobility shift)” value ([1]; wild-type TAR RNA 40 nM, oligourea 150 nM)?
The value was “able to bind TAR RNA”.

What about the Kd ([1]; wild-type TAR RNA) of the same substance?
The Kd was 110 ± 70 nM.

And the “binding to mutant TAR RNA without the bulge residues” value [2]?
Its value is “failed to bind”.

And the “competition by mutant TAR (G26C) for oligourea binding to TAR RNA” value ([3]; competitor G26C TAR RNA (G26-C39 replaced by C26-G39))?
The value was “did not inhibit”.

What about the “competition by mutant TAR RNA without a trinucleotide bulge for oligourea binding to wild-type TAR RNA” value ([3]; competitor M0 TAR RNA 50-200 nM) of the same substance?
Its value is “not able to compete”.

What about the “competition by mutant TAR RNA with one base bulge for oligourea binding to wild-type TAR RNA” value ([3]; competitor one base bulge TAR RNA, data not shown) of the same substance?
The value was “not able to compete”.

What about the “oligourea-RNA complex formation on addition of unlabeled wild-type TAR RNA” value ([3]; competitor wild-type TAR RNA 50-200 nM) of the same substance?
The value was “inhibited”.

What about the “stability of RNA crosslink products to proteinase K digestion” value [4] of the same substance?
The value was “completely stable”.

And the “Tat transactivation (CAT activity) with increasing amounts of oligourea” value [5]?
The value was “Inhibition of Tat transactivation”.

For “Tat peptide (47–57): tat-derived peptide (Tyr47 to Arg57) containing the RNA-binding domain of Tat protein [reference compound]”, which Kd ([1]; wild-type TAR RNA) is on record?
The Kd was 780 nM.

Which “stability of Tat-TAR photocrosslink products to proteinase K treatment” value [6] does the source give for “Tat: Tat of the Tat-TAR photocrosslink products from earlier cited work (ref. 5)” here?
Its value is “complete loss of RNA-protein crosslink”.

Which Kd [7] does the source give for wild-type TAR RNA here?
The Kd was 780 nM.

And the Kd [8]?
The Kd was 110 nM.
